Experimental data: PMC5218480 (PLoS ONE, 2017)

Test system: MV-4-11 cells
Experiment: Gene expression microarray analysis (Affymetrix PrimeView) and GSEA
Assay type: cell-based, human
Set-up: RFU PODN (11730768_x_at) / Fold change /veh PODN (11730768_x_at) / RFU LINC00158 (11744669_a_at) / Fold change /veh LINC00158 (11744669_a_at) / RFU DUSP10 (11751237_a_at) / Fold change /veh DUSP10 (11751237_a_at) / RFU ID3 (11757404_x_at) / Fold change /veh ID3 (11757404_x_at) / RFU PLEKHG5 (11737974_s_at) / Fold change /veh PLEKHG5 (11737974_s_at) / RFU LRRC4B (11730491_at) / Fold change /veh LRRC4B (11730491_at) / RFU GIMAP4 (11747438_a_at) / Fold change /veh GIMAP4 (11747438_a_at) / RFU KRT8 (11758183_x_at) / Fold change /veh KRT8 (11758183_x_at) / RFU CNN1 (11734310_a_at) / Fold change /veh CNN1 (11734310_a_at) / RFU VPS37D (11726825_at) / Fold change /veh VPS37D (11726825_at) / RFU C10orf10 (11716522_x_at) / Fold change /veh C10orf10 (11716522_x_at) / RFU KIR2DL2 /// KIR2DL4 /// KIR2DL5A /// KIR2DL5B /// KIR2DS1 /// KIR2DS2 /// KIR2DS3 /// KIR2DS4 /// KIR3DL3 /// KIR3DL3 /// KIR3DS1 (11738374_at) / Fold change /veh KIR2DL2 /// KIR2DL4 /// KIR2DL5A /// KIR2DL5B /// KIR2DS1 /// KIR2DS2 /// KIR2DS3 /// KIR2DS4 /// KIR3DL3 /// KIR3DL3 /// KIR3DS1 (11738374_at) / RFU C1QL1 (11718748_at) / Fold change /veh C1QL1 (11718748_at) / RFU TMPRSS4 (11747572_a_at) / Fold change /veh TMPRSS4 (11747572_a_at) / RFU HAMP (11756126_x_at) / Fold change /veh HAMP (11756126_x_at) / RFU RNFT2 (11725882_a_at) / Fold change /veh RNFT2 (11725882_a_at) / RFU NR4A2 (11747474_a_at) / Fold change /veh NR4A2 (11747474_a_at) / RFU ABCC12 (11746883_a_at) / Fold change /veh ABCC12 (11746883_a_at) / RFU TMEM136 (11760407_x_at) / Fold change /veh TMEM136 (11760407_x_at) / RFU CLDN22 /// WWC2 (11732394_at) / Fold change /veh CLDN22 /// WWC2 (11732394_at) / RFU HLA-DPB1 (11760878_x_at) / Fold change /veh HLA-DPB1 (11760878_x_at) / RFU SPINT1 (11716480_a_at) / Fold change /veh SPINT1 (11716480_a_at) / RFU GAP43 (11754022_s_at) / Fold change /veh GAP43 (11754022_s_at) / RFU A4GNT (11735810_at) / Fold change /veh A4GNT (11735810_at) / RFU PRB3 (11715151_x_at) / Fold change /veh PRB3 (11715151_x_at) / RFU TUBB4B (11761932_at) / Fold change /veh TUBB4B (11761932_at) / RFU CAPN14 (11732068_a_at) / Fold change /veh CAPN14 (11732068_a_at) / RFU TMCC2 (11721928_a_at) / Fold change /veh TMCC2 (11721928_a_at) / RFU IRGQ (11745062_a_at) / Fold change /veh IRGQ (11745062_a_at) / RFU FAM174B (11720279_a_at) / Fold change /veh FAM174B (11720279_a_at) / RFU TMPRSS4 (11748680_a_at) / Fold change /veh TMPRSS4 (11748680_a_at) / RFU FAM212B (11763350_a_at) / Fold change /veh FAM212B (11763350_a_at) / RFU PLEKHG5 (11743358_a_at) / Fold change /veh PLEKHG5 (11743358_a_at) / RFU ZSCAN30 (11745921_a_at) / Fold change /veh ZSCAN30 (11745921_a_at) / RFU CMKLR1 (11741424_a_at) / Fold change /veh CMKLR1 (11741424_a_at) / RFU LOC101060620 /// MAPK8IP1 (11723275_at) / Fold change /veh LOC101060620 /// MAPK8IP1 (11723275_at) / RFU SPTSSB (11747773_x_at) / Fold change /veh SPTSSB (11747773_x_at) / RFU PRSS12 (11739890_at) / Fold change /veh PRSS12 (11739890_at) / RFU BIN1 (11741810_x_at) / Fold change /veh BIN1 (11741810_x_at) / RFU WNT11 (11732464_a_at) / Fold change /veh WNT11 (11732464_a_at) / RFU C10orf10 (11716521_a_at) / Fold change /veh C10orf10 (11716521_a_at) / RFU C5orf56 (11738089_at) / Fold change /veh C5orf56 (11738089_at) / RFU CYB561 (11721691_x_at) / Fold change /veh CYB561 (11721691_x_at) / RFU ANKRD19P (11752326_a_at) / Fold change /veh ANKRD19P (11752326_a_at) / RFU OR2T12 /// OR2T33 /// OR2T8 (11738714_s_at) / Fold change /veh OR2T12 /// OR2T33 /// OR2T8 (11738714_s_at) / RFU VCAN (11748164_a_at) / Fold change /veh VCAN (11748164_a_at) / RFU JSRP1 (11732532_at) / Fold change /veh JSRP1 (11732532_at) / RFU KRTAP10-11 (11738290_x_at) / Fold change /veh KRTAP10-11 (11738290_x_at) / RFU MYO3A (11730013_a_at) / Fold change /veh MYO3A (11730013_a_at) / RFU EBF3 (11725865_a_at) / Fold change /veh EBF3 (11725865_a_at) / RFU CAMK2N1 (11719241_x_at) / Fold change /veh CAMK2N1 (11719241_x_at) / RFU C5orf56 (11738088_a_at) / Fold change /veh C5orf56 (11738088_a_at) / RFU OLFML3 (11715873_a_at) / Fold change /veh OLFML3 (11715873_a_at) / RFU LOC100653217 /// NTM (11731650_a_at) / Fold change /veh LOC100653217 /// NTM (11731650_a_at) / RFU MAPK11 (11762145_a_at) / Fold change /veh MAPK11 (11762145_a_at) / RFU FIZ1 (11724087_x_at) / Fold change /veh FIZ1 (11724087_x_at) / RFU OASL (11726364_x_at) / Fold change /veh OASL (11726364_x_at) / RFU SOX15 (11748057_x_at) / Fold change /veh SOX15 (11748057_x_at) / RFU CD79A (11719716_a_at) / Fold change /veh CD79A (11719716_a_at) / RFU HIST1H1D (11736915_at) / Fold change /veh HIST1H1D (11736915_at) / RFU CASKIN2 (11723855_a_at) / Fold change /veh CASKIN2 (11723855_a_at) / RFU LOC730098 (11760151_x_at) / Fold change /veh LOC730098 (11760151_x_at) / RFU OR4N2 (11742367_at) / Fold change /veh OR4N2 (11742367_at) / RFU PRRT2 (11749266_a_at) / Fold change /veh PRRT2 (11749266_a_at) / RFU SNX32 (11753110_a_at) / Fold change /veh SNX32 (11753110_a_at) / RFU CDHR5 (11726645_a_at) / Fold change /veh CDHR5 (11726645_a_at) / RFU RCAN1 (11760418_a_at) / Fold change /veh RCAN1 (11760418_a_at) / RFU FAM167A (11723789_a_at) / Fold change /veh FAM167A (11723789_a_at) / RFU FAM26E (11764081_at) / Fold change /veh FAM26E (11764081_at) / RFU ISYNA1 (11749810_s_at) / Fold change /veh ISYNA1 (11749810_s_at) / RFU ACY1 (11761880_at) / Fold change /veh ACY1 (11761880_at) / RFU 11764098_at / Fold change /veh 11764098_at / RFU SAMD14 (11745864_x_at) / Fold change /veh SAMD14 (11745864_x_at) / RFU NPB (11741838_a_at) / Fold change /veh NPB (11741838_a_at) / RFU TMPRSS6 (11731388_a_at) / Fold change /veh TMPRSS6 (11731388_a_at) / RFU KRTAP10-2 (11738614_at) / Fold change /veh KRTAP10-2 (11738614_at) / RFU ARHGAP8 /// PRR5-ARHGAP8 (11727945_x_at) / Fold change /veh ARHGAP8 /// PRR5-ARHGAP8 (11727945_x_at) / RFU KRTAP5-7 /// NADSYN1 (11734609_at) / Fold change /veh KRTAP5-7 /// NADSYN1 (11734609_at) / RFU RASL12 (11751679_a_at) / Fold change /veh RASL12 (11751679_a_at) / RFU CDKN2B (11736163_a_at) / Fold change /veh CDKN2B (11736163_a_at) / RFU PRF1 (11729649_at) / Fold change /veh PRF1 (11729649_at) / RFU, ZNF638 /// ZNF638-IT1 / Fold change vs veh, ZNF638 /// ZNF638-IT1 / RFU, PANK3 / Fold change vs veh, PANK3 / RFU, SH3YL1 / Fold change vs veh, SH3YL1 / RFU, ZEB2 / Fold change vs veh, ZEB2 / RFU, NRIP1 / Fold change vs veh, NRIP1 / RFU, PTTG1IP / Fold change vs veh, PTTG1IP / RFU, CAPN2 / Fold change vs veh, CAPN2 / RFU, MED14 / Fold change vs veh, MED14 / RFU, SNORA58 / Fold change vs veh, SNORA58 / RFU, C1orf63 / Fold change vs veh, C1orf63 / RFU, LRRFIP1 / Fold change vs veh, LRRFIP1 / RFU, NDUFAF7 / Fold change vs veh, NDUFAF7 / RFU, SLC12A2 / Fold change vs veh, SLC12A2 / RFU, IBTK / Fold change vs veh, IBTK / RFU, ESF1 / Fold change vs veh, ESF1 / Fold change vs veh, TMEM50B / RFU, TAOK1 / Fold change vs veh, TAOK1 / RFU, ACBD3 / Fold change vs veh, ACBD3 / RFU, TMA16 / Fold change vs veh, TMA16 / RFU, RWDD3 / Fold change vs veh, RWDD3 / RFU, BCAT1 / Fold change vs veh, BCAT1 / RFU, EDEM3 / Fold change vs veh, EDEM3 / RFU, TMEM33 / Fold change vs veh, TMEM33 / RFU, WDR75 / Fold change vs veh, WDR75 / RFU, AHCTF1 / Fold change vs veh, AHCTF1 / RFU, TFRC / Fold change vs veh, TFRC / RFU, ZDHHC17 / Fold change vs veh, ZDHHC17 / RFU, NOM1 / Fold change vs veh, NOM1 / RFU, ARL8B / Fold change vs veh, ARL8B / RFU, ZBTB11 / Fold change vs veh, ZBTB11 / RFU, TAMM41 / Fold change vs veh, TAMM41 / RFU, KIAA1704 /// LOC100996395 / Fold change vs veh, KIAA1704 /// LOC100996395 / RFU, ING1 / Fold change vs veh, ING1 / RFU, TRMT61B / Fold change vs veh, TRMT61B / RFU, FUBP3 / Fold change vs veh, FUBP3 / RFU, TP53 / Fold change vs veh, TP53 / RFU, TNKS2 / Fold change vs veh, TNKS2 / RFU, ZFP14 / Fold change vs veh, ZFP14 / RFU, ACTR2 / Fold change vs veh, ACTR2 / RFU, PPP3R1 / Fold change vs veh, PPP3R1 / RFU, PIK3R1 / Fold change vs veh, PIK3R1 / RFU, HNRNPA1 / Fold change vs veh, HNRNPA1 / RFU, RNF170 / Fold change vs veh, RNF170 / RFU, ZNF28 / Fold change vs veh, ZNF28 / RFU, RNGTT / Fold change vs veh, RNGTT / RFU, OGT / Fold change vs veh, OGT / RFU, BRD1 / Fold change vs veh, BRD1 / RFU, MARS / Fold change vs veh, MARS / RFU, ZNF655 / Fold change vs veh, ZNF655 / RFU, FAHD1 / Fold change vs veh, FAHD1 / RFU, BDP1 / Fold change vs veh, BDP1 / RFU, LRRCC1 / Fold change vs veh, LRRCC1 / RFU, ARID1A / Fold change vs veh, ARID1A / RFU, ZNF146 / Fold change vs veh, ZNF146 / RFU, ZNF330 / Fold change vs veh, ZNF330 / RFU, GPN3 / Fold change vs veh, GPN3 / RFU, C9orf123 / Fold change vs veh, C9orf123 / RFU, N4BP2L2 / Fold change vs veh, N4BP2L2 / RFU, ARFIP1 / Fold change vs veh, ARFIP1 / RFU, FAM179B / Fold change vs veh, FAM179B / RFU, BCL10 / Fold change vs veh, BCL10 / RFU, UHRF1BP1L / Fold change vs veh, UHRF1BP1L / RFU, BET1 / Fold change vs veh, BET1 / RFU, CNOT2 / Fold change vs veh, CNOT2 / RFU, ZNF268 / Fold change vs veh, ZNF268 / Fold change vs veh, ZNF507 / RFU, DGCR2 / Fold change vs veh, DGCR2 / RFU, WDSUB1 / Fold change vs veh, WDSUB1 / Fold change vs veh, HSP90B1 /// MIR3652 / RFU, ADSS / Fold change vs veh, ADSS / RFU, GK / Fold change vs veh, GK / RFU, ZNF148 / Fold change vs veh, ZNF148 / RFU, TAF9 / Fold change vs veh, TAF9 / RFU, SLC1A5 / Fold change vs veh, SLC1A5 / RFU, SLMO2 / Fold change vs veh, SLMO2 / RFU, ABCC4 / Fold change vs veh, ABCC4 / RFU, LOC101060439 /// RAP1B / Fold change vs veh, LOC101060439 /// RAP1B / RFU, RFX7 / Fold change vs veh, RFX7 / RFU, GTPBP10 / Fold change vs veh, GTPBP10 / RFU, CNEP1R1 / Fold change vs veh, CNEP1R1 / RFU, BIVM-ERCC5 /// ERCC5 / Fold change vs veh, BIVM-ERCC5 /// ERCC5 / RFU, ILF3 / Fold change vs veh, ILF3 / RFU 11762660_at / Fold change /veh 11762660_at / RFU VCAN (11757783_s_at) / Fold change /veh VCAN (11757783_s_at) / RFU DDX43 (11728927_at) / Fold change /veh DDX43 (11728927_at) / RFU KRT8 (11758188_x_at) / Fold change /veh KRT8 (11758188_x_at) / RFU NKD1 (11759106_at) / Fold change /veh NKD1 (11759106_at) / RFU SRD5A1 (11742802_a_at) / Fold change /veh SRD5A1 (11742802_a_at) / RFU TPSAB1 /// TPSB2 (11721975_s_at) / Fold change /veh TPSAB1 /// TPSB2 (11721975_s_at) / RFU GSTM3 (11746129_a_at) / Fold change /veh GSTM3 (11746129_a_at) / RFU IL23R (11737362_x_at) / Fold change /veh IL23R (11737362_x_at) / RFU TMEM51 (11727254_a_at) / Fold change /veh TMEM51 (11727254_a_at) / RFU PIWIL2 (11732686_x_at) / Fold change /veh PIWIL2 (11732686_x_at) / RFU ORM1 (11744905_x_at) / Fold change /veh ORM1 (11744905_x_at) / RFU CCDC152 (11743942_at) / Fold change /veh CCDC152 (11743942_at) / RFU ECM1 (11717891_a_at) / Fold change /veh ECM1 (11717891_a_at) / RFU IL23R (11748794_a_at) / Fold change /veh IL23R (11748794_a_at) / RFU TNFAIP8L3 (11732012_x_at) / Fold change /veh TNFAIP8L3 (11732012_x_at) / RFU MBOAT4 (11741988_at) / Fold change /veh MBOAT4 (11741988_at) / RFU 11764193_at / Fold change /veh 11764193_at / RFU TMEM53 (11763286_at) / Fold change /veh TMEM53 (11763286_at) / RFU MAGEB2 (11727129_at) / Fold change /veh MAGEB2 (11727129_at) / RFU TMEM200A (11744735_a_at) / Fold change /veh TMEM200A (11744735_a_at) / RFU CCDC152 (11751479_a_at) / Fold change /veh CCDC152 (11751479_a_at) / RFU FAM211A (11726209_a_at) / Fold change /veh FAM211A (11726209_a_at) / RFU RGS16 (11746705_a_at) / Fold change /veh RGS16 (11746705_a_at) / RFU VCAN (11755009_s_at) / Fold change /veh VCAN (11755009_s_at) / RFU RHOB (11743442_s_at) / Fold change /veh RHOB (11743442_s_at) / RFU RGS16 (11720943_a_at) / Fold change /veh RGS16 (11720943_a_at) / RFU RGS16 (11720944_at) / Fold change /veh RGS16 (11720944_at) / RFU, VPS4B / Fold change vs veh, VPS4B / RFU, CREB1 / Fold change vs veh, CREB1 / RFU, DNAJC13 / Fold change vs veh, DNAJC13 / RFU, GNAQ / Fold change vs veh, GNAQ / RFU, CDK5R1 / Fold change vs veh, CDK5R1 / RFU, ZRANB3 / Fold change vs veh, ZRANB3 / RFU, CUL4A / Fold change vs veh, CUL4A / RFU, CCNY / Fold change vs veh, CCNY / RFU, UFL1 / Fold change vs veh, UFL1 / RFU, COG3 / Fold change vs veh, COG3 / RFU, DIAPH2 / Fold change vs veh, DIAPH2 / RFU, SKA2 / Fold change vs veh, SKA2 / RFU, AFF3 / Fold change vs veh, AFF3 / RFU, LMF1 / Fold change vs veh, LMF1 / RFU, IPO11 / Fold change vs veh, IPO11 / RFU, DFFB / Fold change vs veh, DFFB / RFU, FOXP1 / Fold change vs veh, FOXP1 / RFU, CARD8 / Fold change vs veh, CARD8 / RFU, STRN3 / Fold change vs veh, STRN3 / RFU, ADK / Fold change vs veh, ADK / RFU, RASSF2 / Fold change vs veh, RASSF2 / RFU, WIPF1 / Fold change vs veh, WIPF1 / RFU, LARP1B / Fold change vs veh, LARP1B / RFU, RASA1 / Fold change vs veh, RASA1 / RFU, RB1 / Fold change vs veh, RB1 / RFU, PPFIA1 / Fold change vs veh, PPFIA1 / RFU, MAT2A / Fold change vs veh, MAT2A / RFU, CCT5 / Fold change vs veh, CCT5 / RFU, WDR92 / Fold change vs veh, WDR92 / RFU, CUX1 / Fold change vs veh, CUX1 / RFU, TTC7A / Fold change vs veh, TTC7A / RFU, TMEM135 / Fold change vs veh, TMEM135 / RFU, DEPTOR / Fold change vs veh, DEPTOR / RFU, CPM / Fold change vs veh, CPM / RFU, DNAJB6 / Fold change vs veh, DNAJB6 / RFU, CACNA2D3 / Fold change vs veh, CACNA2D3 / RFU, DTX4 / Fold change vs veh, DTX4 / RFU, TFCP2 / Fold change vs veh, TFCP2 / RFU, GMCL1 /// GMCL1P1 / Fold change vs veh, GMCL1 /// GMCL1P1 / RFU, AEBP2 / Fold change vs veh, AEBP2 / RFU, SNHG1 /// SNORD22 /// SNORD25 /// SNORD26 /// SNORD27 /// SNORD28 /// SNORD29 /// SNORD31 / Fold change vs veh, SNHG1 /// SNORD22 /// SNORD25 /// SNORD26 /// SNORD27 /// SNORD28 /// SNORD29 /// SNORD31 / Fold change (Aza/veh), C12orf56 (ProbeSet 11735607_a_at) / Fold change (ACY-1035/veh), C12orf56 (ProbeSet 11735607_a_at) / Fold change (Aza/veh), FGFR1OP (ProbeSet 11751329_s_at) / Fold change (ACY-1035/veh), FGFR1OP (ProbeSet 11751329_s_at) / Fold change (Aza/veh), VPS36 (ProbeSet 11739960_a_at) / Fold change (ACY-1035/veh), VPS36 (ProbeSet 11739960_a_at) / RFU SYPL1 (11715823_x_at) / Fold change /veh SYPL1 (11715823_x_at) / RFU IGFBP7 (11715501_s_at) / Fold change /veh IGFBP7 (11715501_s_at) / RFU REEP3 (11722064_at) / Fold change /veh REEP3 (11722064_at) / RFU IGLL1 (11728026_x_at) / Fold change /veh IGLL1 (11728026_x_at): dose or concentration left out as unconfirmed
Details: ProbeSet 11723944_a_at; LIST B

SMILES: Nc1ccc(-c2cccs2)cc1NC(=O)c1ccc2c(c1)cc(C1CC1)n2CCN1CCOCC1 [ACY-1035]
- RFU, PTTG1IP: 718.82 RFU
